# According to the supplement of paper PMC10307832:
# Legend:
# Assay in all cases: relative viability (nuclei count vs DMSO), 5 days (fraction); higher = more cells survive
# Zebularine + Navitoclax = compound: O=c1ncccn1[C@@H]1O[C@H](CO)[C@@H](O)[C@H]1O [Zebularine] + CC1(C)CCC(c2ccc(Cl)cc2)=C(CN2CCN(c3ccc(C(=O)NS(=O)(=O)c4ccc(N[C@H](CCN5CCOCC5)CSc5ccccc5)c(S(=O)(=O)C(F)(F)F)c4)cc3)CC2)C1 [Navitoclax] (partner 0.5 µM)
# Method in brief: (§1)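 Relative viability is defined as nuclei in treated wells over nuclei in vehicle wells. Duplicate plates were run and medians reported. Lung cancer cell lines in 1536-well plates were dosed by pin tool one day after seeding, with one drug or with a fixed anchor-drug dose plus five library-drug doses (not always all listed) in √10 steps, and nuclei were counted after 5 days.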
# Zebularine + Linsitinib = compound: O=c1ncccn1[C@@H]1O[C@H](CO)[C@@H](O)[C@H]1O [Zebularine] + C[C@]1(O)C[C@@H](c2nc(-c3ccc4ccc(-c5ccccc5)nc4c3)c3c(N)nccn32)C1 [Linsitinib] (partner 1 µM)
# Method in brief: as §1
# BI-D1870 + Vorinostat = compound: CC(C)CCN1c2nc(Nc3cc(F)c(O)c(F)c3)ncc2N(C)C(=O)C1C [BI-D1870] + O=C(CCCCCCC(=O)Nc1ccccc1)NO [Vorinostat] (partner 1 µM)
# Method in brief: as §1
# BI-D1870 + OSI-027 = compound: CC(C)CCN1c2nc(Nc3cc(F)c(O)c(F)c3)ncc2N(C)C(=O)C1C [BI-D1870] + COc1cccc2cc(-c3nc([C@H]4CC[C@H](C(=O)O)CC4)n4ncnc(N)c34)[nH]c12 [OSI-027] (partner 0.5 µM)
# Method in brief: as §1
Cell Line,relative viability (Zebularine + Navitoclax; first compound 1 µM),relative viability (Zebularine + Navitoclax; first compound 3.162 µM),relative viability (Zebularine + Navitoclax; first compound 10 µM),relative viability (Zebularine + Navitoclax; first compound 31.62 µM),relative viability (Zebularine + Navitoclax; first compound 100 µM),relative viability (Zebularine + Linsitinib; first compound 1 µM),relative viability (Zebularine + Linsitinib; first compound 3.162 µM),relative viability (Zebularine + Linsitinib; first compound 10 µM),relative viability (Zebularine + Linsitinib; first compound 31.62 µM),relative viability (Zebularine + Linsitinib; first compound 100 µM),relative viability (BI-D1870 + Vorinostat; first compound 0.04 µM),relative viability (BI-D1870 + Vorinostat; first compound 0.1265 µM),relative viability (BI-D1870 + Vorinostat; first compound 0.4 µM),relative viability (BI-D1870 + Vorinostat; first compound 1.265 µM),relative viability (BI-D1870 + Vorinostat; first compound 4 µM),relative viability (BI-D1870 + OSI-027; first compound 0.04 µM),relative viability (BI-D1870 + OSI-027; first compound 0.1265 µM),relative viability (BI-D1870 + OSI-027; first compound 0.4 µM),relative viability (BI-D1870 + OSI-027; first compound 1.265 µM),relative viability (BI-D1870 + OSI-027; first compound 4 µM)
HCC-78,0.811,0.775,0.592,0.497,0.22,0.53,0.562,0.379,0.43,0.229,0.438,0.408,0.392,0.497,0.381,0.629,0.346,0.401,0.427,0.309
HCC-366,1.12,1.02,0.449,0.556,0.0921,0.764,0.75,0.428,0.355,0.0776,0.502,0.331,0.294,0.316,0.1,1.1,0.603,0.75,0.818,0.49
HCC-827,0.98,0.986,0.968,0.714,0.418,0.974,1.01,0.941,0.757,0.361,0.771,0.846,0.818,0.988,0.765,0.74,0.738,0.71,0.76,0.711
HOP-62,1.11,1.01,0.424,0.217,0.197,1.05,0.848,0.557,0.188,0.118,0.737,0.669,0.602,0.703,0.464,0.993,0.819,0.791,0.849,0.699
IA-LM,0.899,0.688,0.506,0.805,0.616,0.723,0.794,–,0.878,0.503,1.02,0.927,0.913,1.08,0.874,–,–,–,–,–
LC-2-ad,0.409,0.422,0.291,0.33,0.137,0.924,0.844,0.591,0.496,0.157,0.696,0.646,0.701,0.705,0.56,0.93,0.861,0.824,0.867,0.802
LCLC-97TM1,0.422,0.351,0.238,0.149,0.143,0.192,0.168,0.144,0.128,0.11,1,0.684,0.722,0.868,0.472,0.682,0.61,0.557,0.727,0.472
LCLC-103H,–,–,–,–,–,1.17,1.24,0.87,1,0.945,0.886,0.719,0.786,0.755,0.535,0.387,0.417,0.447,0.418,0.366
NCI-H358,–,–,–,–,–,0.796,0.822,0.469,0.516,0.26,0.834,0.61,0.519,0.386,0.229,0.825,0.65,0.687,0.728,0.344
NCI-H522,–,–,–,–,–,–,–,–,–,–,1.02,1.09,1.01,0.907,0.94,0.872,0.66,0.655,0.654,0.649
NCI-H650,–,–,–,–,–,0.931,0.755,0.467,0.43,0.374,0.478,0.407,0.413,0.413,0.386,0.538,0.427,0.509,0.471,0.446
NCI-H661,–,–,–,–,–,0.499,0.541,0.58,0.539,0.633,0.815,0.806,0.764,0.691,0.451,0.765,0.622,0.652,0.706,0.467
NCI-H1299,1.05,1.07,0.782,1.06,0.526,1.09,0.993,0.984,1.07,0.535,–,–,–,–,–,–,–,–,–,–
NCI-H1563,–,–,–,–,–,1.21,1.17,1.17,1.22,1.17,–,–,–,–,–,0.79,0.814,0.673,0.801,0.709
NCI-H1623,–,–,–,–,–,–,–,–,–,–,–,–,–,–,–,0.389,0.439,0.457,0.396,0.376
NCI-H1648,–,–,–,–,–,–,–,–,–,–,0.345,0.333,–,0.626,0.697,0.266,0.255,0.273,0.252,0.277
NCI-H1650,1.06,1.06,–,1.21,0.704,–,–,–,–,–,0.613,0.425,0.646,0.595,0.577,0.653,0.591,0.593,0.68,0.331
NCI-H1703,1.17,0.915,0.859,1.31,0.813,0.633,0.512,0.644,0.941,0.525,–,–,–,–,–,–,–,–,–,–
NCI-H1792,0.61,0.679,0.816,0.325,0.18,0.571,0.441,0.541,0.267,0.296,–,–,–,–,–,0.753,0.613,0.533,0.552,0.397
NCI-H2170,0.694,0.642,0.453,0.574,0.432,–,–,–,–,–,1.01,0.786,0.786,0.783,0.675,0.732,0.634,0.65,0.428,0.639
NCI-H2342,–,–,–,–,–,–,–,–,–,–,0.806,0.61,0.718,0.812,0.966,0.592,0.587,0.645,0.773,0.679
SW 900,–,–,–,–,–,–,–,–,–,–,0.504,0.537,0.582,0.725,0.466,0.808,0.424,0.442,0.604,0.327
